Values quoted from earlier work as cited in patent US20090078254A1, “Anesthetic Agent Recovery” (priority 2004, published 2009).
Where two headings read alike, the source gives them in different places.

Columns and labels:
[1] = not given; remark: listed apart in the source
[2] = system: population moving in response to pain; details: for MAC (Minimum Alveolar Concentration of gas that prevents 50% of population from moving in response to pain): adding 50% MAC N2O drops MAC value of agent by 50%
[3] = in vitro and in vivo studies
[4] = produces inorganic fluoride
[5] = not given; remark: listed apart in the source

| Stability In Moist Soda Lime (40° C.) | Stability In Moist Soda Lime (60° C.) | Stability In Moist Soda Lime (80° C.) | SVP@20° C. [1] | Stability in the presence of standard CO2 absorbents (soda lime, baralime) | metabolism [4] | Structure (SMILES) | SVP@18° C. [1] | SVP@22° C. [1] | SVP@24° C. [1] | SVP@26° C. [1] | saturated vapor pressure ([1]; room temperature) | MAC (Minimum Alveolar Concentration of gas that prevents 50% of population from moving in response to pain) [2] | Potency relative to ISOFLURANE ([2]; fraction of isoflurane potency) | Compound stability [3] | Liver damage ([5]; byproducts of reductive metabolism) | Malignant hyperthermia ([5]; in vivo) |
| --- | --- | --- | --- | --- | --- | --- | --- | --- | --- | --- | --- | --- | --- | --- | --- | --- |
| Stable | Stable | Stable | 240 mm Hg | – | – | FC(F)OC(Cl)C(F)(F)F (stereo not drawn) [ISOFLURANE] | 219 mm Hg | 262 mm Hg | 286 mm Hg | 312 mm Hg | – | 1-1.6% | – | – | – | – |
| Unstable | Unstable | Unstable | 157 mm Hg | unstable | 5% | FCOC(C(F)(F)F)C(F)(F)F [SEVOFLURANE] | – | – | – | – | – | 1.5-2.5% | – | – | – | – |
| – | – | – | – | – | – | FC(F)(F)C(Cl)Br (stereo not drawn) [HALOTHANE] | – | – | – | – | – | – | – | – | can cause liver damage | potential to cause malignant hyperthermia |

| Structure (SMILES) | Stability In Moist Soda Lime (40° C.) | Stability In Moist Soda Lime (60° C.) | Stability In Moist Soda Lime (80° C.) | SVP@20° C. [1] | Stability in the presence of standard CO2 absorbents (soda lime, baralime) | metabolism [4] | SVP@18° C. [1] | SVP@22° C. [1] | SVP@24° C. [1] | SVP@26° C. [1] | saturated vapor pressure ([1]; room temperature) | MAC (Minimum Alveolar Concentration of gas that prevents 50% of population from moving in response to pain) [2] | Potency relative to ISOFLURANE ([2]; fraction of isoflurane potency) | Compound stability [3] | Liver damage ([5]; byproducts of reductive metabolism) | Malignant hyperthermia ([5]; in vivo) |
| --- | --- | --- | --- | --- | --- | --- | --- | --- | --- | --- | --- | --- | --- | --- | --- | --- |
| FC(F)OC(F)C(F)(F)F (stereo not drawn) [DESFLURANE] | Stable | Stable | Sl. Unstable | 700 mm Hg | – | – | 653 mm Hg | 750 mm Hg | 804 mm Hg | 860 mm Hg | ~1.0 atm. | 5-8% | about ⅕ | extremely stable | – | – |
